One experiment concerns SARS-CoV-2 Omicron BA.5. The experiment can be described thus: Antiviral activity (CPE inhibition) in Vero E6 cells, Omicron BA.5. The class given is cell-based. To be noted: read-out: EC50 against Omicron BA.5 variant.
Another experiment concerns SARS-CoV-2 Omicron EG.5. Kind of experiment: Antiviral activity (CPE inhibition) in Vero E6 cells, Omicron EG.5. The experiment is classed as cell-based. The note with it: read-out: EC50 against Omicron EG.5 variant.
The mark [1] stands for this setting: Severe acute respiratory syndrome coronavirus 2, Vero C1008, 48 h.

Read-outs that look alike come from different tables or passages of the source.

On to `O=C(OC[C@H]1O[C@@H](OC(=O)c2cc(O)c(O)c(O)c2)[C@H](OC(=O)c2cc(O)c(O)c(O)c2)[C@@H](OC(=O)c2cc(O)c(O)c(O)c2)[C@@H]1OC(=O)c1cc(O)c(O)c(O)c1)c1cc(O)c(O)c(O)c1` [PGG, 1,2,3,4,6-penta-O-galloyl-β-D-glucose], for which the EC50 in the experiment on SARS-CoV-2 Omicron BA.5 (setting [1]) came out at 3.2 µM; with SARS-CoV-2 Omicron EG.5 (setting [1]), 15.4 µM.
Regarding `Cn1cnc(Cn2c(=O)[nH]/c(=N\c3cc4cn(C)nc4cc3Cl)n(Cc3cc(F)c(F)cc3F)c2=O)n1` [S-217622, reference compound], the EC50 is 0.09 µM in the experiment on SARS-CoV-2 Omicron BA.5 and 0.06 µM with SARS-CoV-2 Omicron EG.5.
As for `O=C(OC[C@H]1O[C@@H](OC(=O)c2cc(O)c(O)c(O)c2)[C@H](OC(=O)c2cc(O)c(O)c(O)c2)[C@@H](OC(=O)c2cc(O)c(O)c(O)c2)[C@@H]1O)c1cc(O)c(O)c(O)c1` [TGG, 1,2,3,6-tetra-O-galloyl-β-D-glucose], the figures for the EC50 with SARS-CoV-2 Omicron BA.5 (setting [1]) and in the experiment on SARS-CoV-2 Omicron EG.5 (setting [1]) were 25.7 µM and 37.3 µM, respectively.

Values taken from paper PMC11689655, “High-throughput screening of dual-target inhibitors for SARS-CoV-2 main protease and papain-like protease from Chebulae Fructus: in silico prediction and experimental verification” (Frontiers in Microbiology, 2024).
